Data on 23 molecules can be found in ChEMBL document CHEMBL4118097, “Selective Inhibitors of Dual Leucine Zipper Kinase (DLK, MAP3K12) with Activity in a Model of Alzheimer's Disease” (J Med Chem, 2017).

Structures are written as SMILES. Bounds are passed on as bounds.

For the first series, the system named is MDR1 (P-gp), human. The series is described as follows: Permeability from apical side to basolateral side in MDCK1 cells harboring human MDR1. Format: ADME, cell-based, Canis lupus familiaris. The conditions noted are these: dog, MDCK-MDR1; read-out: permeability.
As for `CC(C)n1nc(-c2cnc(N)c(C(F)(F)F)c2)cc1[C@H]1[C@@H]2CN(CC(F)F)C[C@@H]21`, the Papp A→B came to 7.9 ×10⁻⁶ cm/s.

For the next series, the target named is T1, Mitogen-activated protein kinase kinase kinase 12 (Homo sapiens, UniProt Q12852).
T1 sequence (Q12852 whole entry): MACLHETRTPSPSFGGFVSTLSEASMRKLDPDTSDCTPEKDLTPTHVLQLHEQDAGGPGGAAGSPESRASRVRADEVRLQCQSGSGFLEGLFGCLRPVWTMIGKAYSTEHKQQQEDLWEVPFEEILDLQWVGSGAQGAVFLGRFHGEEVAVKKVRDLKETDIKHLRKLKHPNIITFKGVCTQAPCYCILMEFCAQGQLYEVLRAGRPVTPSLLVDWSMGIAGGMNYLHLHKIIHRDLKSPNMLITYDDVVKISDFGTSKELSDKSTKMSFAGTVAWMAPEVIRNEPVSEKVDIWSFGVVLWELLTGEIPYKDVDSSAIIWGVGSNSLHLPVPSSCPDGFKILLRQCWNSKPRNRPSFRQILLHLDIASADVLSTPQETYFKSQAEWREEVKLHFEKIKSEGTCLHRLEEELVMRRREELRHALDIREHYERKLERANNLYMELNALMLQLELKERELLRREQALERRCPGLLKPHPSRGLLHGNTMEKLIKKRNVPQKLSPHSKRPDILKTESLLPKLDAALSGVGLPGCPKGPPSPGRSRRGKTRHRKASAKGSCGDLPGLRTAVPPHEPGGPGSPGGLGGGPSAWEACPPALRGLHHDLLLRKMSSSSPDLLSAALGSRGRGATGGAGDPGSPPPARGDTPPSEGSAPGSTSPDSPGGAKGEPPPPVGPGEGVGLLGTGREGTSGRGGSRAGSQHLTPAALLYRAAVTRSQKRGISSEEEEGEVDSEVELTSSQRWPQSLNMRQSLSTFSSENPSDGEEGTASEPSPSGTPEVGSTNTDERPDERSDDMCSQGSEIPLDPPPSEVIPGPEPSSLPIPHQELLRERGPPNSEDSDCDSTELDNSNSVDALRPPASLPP
Kind of series: Binding affinity to N-terminally GST-tagged wild type human DLK (1 to 520 residues) expressed in sf21 insect cells using N-terminally His-tagged MKK4 K131M as substrate after 60 mins in presence of ATP by TR-FRET assay.
Conditions: not given
(In general: TR-FRET usually uses a lanthanide donor and a delayed reading to cut background.)
Regarding `Cn1nc(-c2cnc(N)c(C(F)(F)F)c2)cc1[C@H]1[C@@H]2CN(C3COC3)C[C@@H]21`, the Ki is 82 nM.
As for `Cn1nc(-c2cnc(N)c(OC(F)(F)F)c2)cc1[C@H]1[C@@H]2CN(C3COC3)C[C@@H]21`, the inhibitory constant (Ki) worked out at 67 nM.
Take `Nc1ncc(-c2cc([C@H]3[C@@H]4CN(C5COC5)C[C@@H]43)n(CC3CC3)n2)cc1OC(F)(F)F`: the Ki was found to be 3 nM.
Consider `COc1cc(-c2cc([C@H]3[C@@H]4CN(C5COC5)C[C@@H]43)n(C(C)C)n2)cnc1N`, for which the Ki came to 7 nM.
Same read-out and setting: then `CC(=O)N1C[C@@H]2[C@H](C1)[C@H]2c1cc(-c2cnc(N)c(C(F)(F)F)c2)nn1C(C)C`, with 6 nM; and `CCn1nc(-c2cnc(N)c(C(F)(F)F)c2)cc1[C@H]1[C@@H]2CN(C3COC3)C[C@@H]21`, with 3 nM; and `Nc1ncc(-c2cc([C@H]3[C@@H]4CN(C5COC5)C[C@@H]43)n(CC(F)(F)F)n2)cc1C(F)(F)F`, with 16 nM.
For the molecule `COCCN1C[C@@H]2[C@H](C1)[C@H]2c1cc(-c2cnc(N)c(C(F)(F)F)c2)nn1C(C)C`, the Ki was found to be 9 nM.
In the case of `Nc1ncc(-c2cc([C@H]3[C@@H]4CN(C5COC5)C[C@@H]43)n(CC3CCCC3)n2)cc1C(F)(F)F`, the inhibitory constant (Ki) came out at 9 nM.
Take `CC(C)(O)Cn1nc(-c2cnc(N)c(C(F)(F)F)c2)cc1[C@H]1[C@@H]2CN(C3COC3)C[C@@H]21`: the Ki was found to be 23 nM.
On to `CC(C)n1nc(-c2cnc(N)c(C(F)(F)F)c2)cc1[C@H]1[C@@H]2CN(CC3COC3)C[C@@H]21`, for which the Ki is 5 nM.
As for `Cc1cc(-c2cc(C3CCN(C4COC4)CC3)n(C(C)C)n2)cnc1N`, the inhibitory constant (Ki) was greater than 1600 nM.
Consider `CC(C)Cn1nc(-c2cnc(N)c(C(F)(F)F)c2)cc1[C@H]1[C@@H]2CN(C3COC3)C[C@@H]21`, for which the Ki amounted to 3 nM.
As to `CC(O)CN1C[C@@H]2[C@H](C1)[C@H]2c1cc(-c2cnc(N)c(C(F)(F)F)c2)nn1C(C)C` (some centres undefined), the Ki was determined as 4 nM.
Consider `Cc1c[nH]c2ncc(-c3cc(C4CCN(C5COC5)CC4)n(C(C)C)n3)cc12`, for which the Ki worked out at 4 nM.

In another series the test system is MDR1 (P-gp), human. The series is described as follows: Efflux ratio of permeability from basolateral to apical side over apical to basolateral side in MDCK cells harboring human MDR1. It is filed as ADME, cell-based, Canis lupus familiaris. Particulars: dog.
For the molecule `CC(C)n1nc(-c2cnc(N)c(C(F)(F)F)c2)cc1[C@H]1[C@@H]2CN(CC(F)F)C[C@@H]21`, the efflux ratio came to 0.3.

In a further series the target is T1, Mitogen-activated protein kinase kinase kinase 12. The series is described as follows: Inhibition of doxycycline inducible human DLK transfected in HEK293 cells assessed as JNK phosphorylation after […] by Hoechst-33342 staining-based assay. It is filed as cell-based.
Conditions: not given
For the molecule `Cn1nc(-c2cnc(N)c(C(F)(F)F)c2)cc1[C@H]1[C@@H]2CN(C3COC3)C[C@@H]21`, the IC50 was 1800 nM.
The same measure, in the same setting: then `CC(C)n1nc(-c2cnc(N)c(C(F)(F)F)c2)cc1[C@H]1[C@@H]2CN(CC(F)F)C[C@@H]21`, with 611 nM; and `Cn1nc(-c2cnc(N)c(OC(F)(F)F)c2)cc1[C@H]1[C@@H]2CN(C3COC3)C[C@@H]21`, with 1300 nM; and `Nc1ncc(-c2cc([C@H]3[C@@H]4CN(C5COC5)C[C@@H]43)n(CC3CC3)n2)cc1OC(F)(F)F`, with 304 nM.
Turning to `CC(C)n1nc(-c2cnc(N)c(OC(F)F)c2)cc1[C@H]1[C@@H]2CN(C3COC3)C[C@@H]21`, the half-maximal inhibitory concentration (IC50) is 328 nM.
Same read-out and setting: the figure for `CC(C)n1nc(-c2cnc3[nH]cc(F)c3c2)cc1C1CCN(C2COC2)CC1` is 2800 nM.
Consider `CC(C)n1nc(-c2cnc(N)c(C(F)F)c2)cc1[C@H]1[C@@H]2CN(C3COC3)C[C@@H]21`, for which the IC50 is 1200 nM.
Regarding `COc1cc(-c2cc([C@H]3[C@@H]4CN(C5COC5)C[C@@H]43)n(C(C)C)n2)cnc1N`, the half-inhibitory concentration (IC50) was determined as 873 nM.
On to `CC(=O)N1C[C@@H]2[C@H](C1)[C@H]2c1cc(-c2cnc(N)c(C(F)(F)F)c2)nn1C(C)C`, for which the IC50 turned out to be 302 nM.
On the same count and under the same terms, the figure for `CCn1nc(-c2cnc(N)c(C(F)(F)F)c2)cc1[C@H]1[C@@H]2CN(C3COC3)C[C@@H]21` is 406 nM; for `Nc1ncc(-c2cc([C@H]3[C@@H]4CN(C5COC5)C[C@@H]43)n(CC(F)(F)F)n2)cc1C(F)(F)F` it is 180 nM.
For the molecule `CC(C)n1nc(-c2cnc(N)c(C(F)(F)F)c2)cc1C1CCN(C2COC2)CC1`, the IC50 was 1900 nM.
In the case of `COCCN1C[C@@H]2[C@H](C1)[C@H]2c1cc(-c2cnc(N)c(C(F)(F)F)c2)nn1C(C)C`, the IC50 worked out at 265 nM.
Consider `Nc1ncc(-c2cc([C@H]3[C@@H]4CN(C5COC5)C[C@@H]43)n(CC3CCCC3)n2)cc1C(F)(F)F`, for which the 50% inhibitory concentration (IC50) was 202 nM.
Turning to `CC(C)(O)Cn1nc(-c2cnc(N)c(C(F)(F)F)c2)cc1[C@H]1[C@@H]2CN(C3COC3)C[C@@H]21`, the IC50 came out at 829 nM.
The same measure, in the same setting: the figure for `CC(C)n1nc(-c2cnc(N)c(C(F)(F)F)c2)cc1[C@H]1[C@@H]2CN(CC3COC3)C[C@@H]21` is 274 nM.
As for `CC(C)n1nc(-c2cnc3[nH]cc(Cl)c3c2)cc1C1CCN(C2COC2)CC1`, the IC50 worked out at 574 nM.
Same read-out and setting: then `CC(C)n1nc(-c2cnc3[nH]cc(C(F)(F)F)c3c2)cc1C1CCN(C2COC2)CC1`, with 485 nM; and `CC(C)Cn1nc(-c2cnc(N)c(C(F)(F)F)c2)cc1[C@H]1[C@@H]2CN(C3COC3)C[C@@H]21`, with 99 nM; and `CC(O)CN1C[C@@H]2[C@H](C1)[C@H]2c1cc(-c2cnc(N)c(C(F)(F)F)c2)nn1C(C)C` (some centres undefined), with 208 nM.
For the molecule `Cc1c[nH]c2ncc(-c3cc(C4CCN(C5COC5)CC4)n(C(C)C)n3)cc12`, the IC50 is 303 nM.
With `CC(C)n1nc(-c2cnc(N)c(Cl)c2)cc1C1CCN(C2COC2)CC1`, the IC50 stood at 1700 nM.

What is called Ki is the equilibrium dissociation constant of an inhibitor or competing ligand from its target. By efflux ratio is commonly meant a quotient of directional permeabilities that is used to spot active efflux. A word on the IC50: it is the point on the concentration scale where inhibition reaches its midpoint.
